Experimental data published in ChEMBL document CHEMBL1155704, “Acetylated analogues of the microtubule-stabilizing agent discodermolide: preparation and biological activity” (J Nat Prod, 2001).

Test system: P388
Assay: Cytotoxicity against mouse P388 cells after 48 hrs by MTT assay
Format: functional, cell-based
Settings: P388, 48 h

C=C/C=C\[C@H](C)[C@H](OC(N)=O)[C@@H](C)[C@H](O)[C@@H](C)C/C(C)=C\[C@H](C)[C@@H](O)[C@@H](C)/C=C\[C@H](C[C@@H]1OC(=O)[C@H](C)[C@@H](O)[C@H]1C)OC(C)=O
IC50: 3.9 nM

C=C/C=C\[C@H](C)[C@H](OC(N)=O)[C@@H](C)[C@H](O)[C@@H](C)C/C(C)=C\[C@H](C)[C@@H](OC(C)=O)[C@@H](C)/C=C\[C@H](C[C@@H]1OC(=O)[C@H](C)[C@@H](OC(C)=O)[C@H]1C)OC(C)=O
IC50: 166 nM

C=C/C=C\[C@H](C)[C@H](OC(N)=O)[C@@H](C)[C@H](O)[C@@H](C)C/C(C)=C\[C@H](C)[C@@H](O)[C@@H](C)/C=C\[C@@H](O)C[C@@H]1OC(=O)[C@H](C)[C@@H](OC(C)=O)[C@H]1C
IC50: 12.6 nM

C=C/C=C\[C@H](C)[C@H](OC(N)=O)[C@@H](C)[C@H](O)[C@@H](C)C/C(C)=C\[C@H](C)[C@@H](O)[C@@H](C)/C=C\[C@H](C[C@@H]1OC(=O)[C@H](C)[C@@H](OC(C)=O)[C@H]1C)OC(C)=O
IC50: 0.74 nM

C=C/C=C\[C@H](C)[C@H](OC(N)=O)[C@@H](C)[C@H](OC(C)=O)[C@@H](C)C/C(C)=C\[C@H](C)[C@@H](OC(C)=O)[C@@H](C)/C=C\[C@H](C[C@@H]1OC(=O)[C@H](C)[C@@H](OC(C)=O)[C@H]1C)OC(C)=O
IC50: 837 nM

C=C/C=C\[C@H](C)[C@H](OC(N)=O)[C@@H](C)[C@H](OC(C)=O)[C@@H](C)C/C(C)=C\[C@H](C)[C@@H](O)[C@@H](C)/C=C\[C@H](C[C@@H]1OC(=O)[C@H](C)[C@@H](OC(C)=O)[C@H]1C)OC(C)=O
IC50: > 6920 nM

C=C/C=C\[C@H](C)[C@H](OC(N)=O)[C@@H](C)[C@H](O)[C@@H](C)C/C(C)=C\[C@H](C)[C@@H](OC(C)=O)[C@@H](C)/C=C\[C@@H](O)C[C@@H]1OC(=O)[C@H](C)[C@@H](OC(C)=O)[C@H]1C
IC50: 103 nM

C=C/C=C\[C@H](C)[C@H](OC(N)=O)[C@@H](C)[C@H](OC(C)=O)[C@@H](C)C/C(C)=C\[C@H](C)[C@@H](O)[C@@H](C)/C=C\[C@@H](O)C[C@@H]1OC(=O)[C@H](C)[C@@H](OC(C)=O)[C@H]1C
IC50: 1150 nM
